Experiments:
[1] = system: HL-60, human proleukemia cells; assay: Cell-MTS proliferation assay, HL-60; type: cell-based; conditions: Homo sapiens; Cell-MTS proliferation, HL-60 cells, 168 hr
How it was run: (§1)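 Seed: Raji 15,000, HL-60 5,000, NCI-H460 3,000 cells/96-well. +24 hr: 11-pt compound dilution, 100 μM–2.0 nM final. 7 d culture, MTS reagent, read OD490; IC50 vs DMSO, background subtracted.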

[2] = system: NCI-H460, human non-small cell lung cancer cells; assay: Cell-MTS proliferation assay, NCI-H460; type: cell-based; conditions: Homo sapiens; Cell-MTS proliferation, NCI-H460 cells, 168 hr
How it was run: as §1

[3] = system: Raji, human Burkitts lymphoma cells; assay: Cell-MTS proliferation assay, Raji; type: cell-based; conditions: Homo sapiens; Cell-MTS proliferation, Raji cells, 168 hr
How it was run: as §1

BRD4(BD1) = BRD4(BD1) (Homo sapiens (Human), UniProt O60885); assay: In vitro enzyme inhibition assay (BRD4 AlphaScreen); type: binding; conditions: in vitro enzyme inhibition assay
How it was run: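 His-tagged BRD4 tested by AlphaScreen for binding of biotinylated H4K5/8/12/16-tetraacetyl peptide. After 20 min at room temperature, streptavidin donor and nickel chelate acceptor beads added (5 μg/mL final each). IC50 determined.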

| IC50 [1] [nM] | IC50 [2] [nM] | IC50 [3] [nM] | IC50 (BRD4(BD1)) [nM] | Structure (SMILES) |
| --- | --- | --- | --- | --- |
| < 500 | > 5000 | < 500 | < 500 | Cn1cc(-c2cc(CS(C)(=O)=O)ccc2OCC(F)(F)F)c2ccccc2c1=O [Example 488, 2-methyl-4-[5-(methylsulfonylmethyl)-2-(2,2,2-trifluoroethoxy)phenyl]isoquinolin-1-one] |
| 500 to 5000 | > 5000 | 500 to 5000 | < 500 | COCC1COc2cc(S(C)(=O)=O)cc(-c3cn(C)c(=O)c4ccccc34)c2O1 (stereo not shown) [Example 497, 4-[3-(methoxymethyl)-7-methylsulfonyl-2,3-dihydro-1,4-benzodioxin-5-yl]-2-methylisoquinolin-1-one] |
| 500 to 5000 | > 5000 | > 5000 | < 500 | COCC1COc2cc(S(C)(=O)=O)cc(-c3cc(C)c(=O)n(C)c3)c2O1 (stereo not shown) [Example 498, 5-[3-(methoxymethyl)-7-methylsulfonyl-2,3-dihydro-1,4-benzodioxin-5-yl]-1,3-dimethylpyridin-2-one] |
| 500 to 5000 | > 5000 | 500 to 5000 | < 500 | COCC1COc2c(cc(S(C)(=O)=O)cc2-c2cn(C)c(=O)c3ccccc23)O1 (stereo not shown) [Example 501, 4-[2-(methoxymethyl)-7-methylsulfonyl-2,3-dihydro-1,4-benzodioxin-5-yl]-2-methylisoquinolin-1-one] |
